We go through 31 compounds from US10968203B2, “Pyrimidinyl-pyridyloxy-naphthyl compounds and methods of treating IRE1-related diseases and disorders” (Genentech, Inc., priority 2017, dated 2021).

Each structure is given as a SMILES string. Where a name gives a salt, the structure may show the parent alone.

In the first test the test system is XBP1s-luc 293 LUC. As to the kind of experiment: cellular PD assay, XBP1s-LUC reporter (Example 903). As to conditions: Table 1; read-out: XBP1s-luc 293 LUC (IC50). The test is classed as cell-based. The gist of the method:
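Cellular IRE1α pathway activity was quantified from the luciferase signal of an XBP1-Luc reporter, where the luciferase fusion is in frame and expressed only from the spliced XBP1 transcript.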
The term IC50 denotes the concentration that inhibits the measured activity by half. For the compound `Cc1ccc2c(NS(=O)(=O)CCC3CC3)cccc2c1Oc1ncccc1-c1ccnc(N[C@H]2CCCNC2)n1` [Example 129, (S)-2-Cyclopropyl-N-(6-methyl-5-((3-(2-(piperidin-3-ylamino)pyrimidin-4-yl)pyridin-2-yl)oxy)naphthalen-1-yl)ethanesulfonamide], the IC50 amounted to 0.301 µM. Regarding `CCc1nc(CNc2cccc3c(Oc4ncccc4-c4ccnc(N[C@H]5CCCNC5)n4)c(C)ccc23)cs1` [Example 345, (S)-4-(2-((5-(((2-Ethylthiazol-4-yl)methyl)amino)-2-methylnaphthalen-1-yl)oxy)pyridin-3-yl)-N-(piperidin-3-yl)pyrimidin-2-amine], the IC50 worked out at 0.171 µM.

Consider `Cc1ccc2c(NC(=O)C3CCCC3)cccc2c1Oc1ncccc1-c1ccnc(N[C@H]2CCCNC2)n1` [Example 187, (S)—N-(6-Methyl-5-((3-(2-(piperidin-3-ylamino)pyrimidin-4-yl)pyridin-2-yl)oxy)naphthalen-1-yl)cyclopentanecarboxamide], for which the IC50 was found to be 0.157 µM. Take `Cc1ccc2c(NC[C@H]3CC3(F)F)cccc2c1Oc1ncccc1-c1ccnc(N[C@H]2CCCNC2)n1` (single isomer, unassigned) [Example 342]: the IC50 was determined as 0.121 µM. Consider `Cc1ccc2c(NC(=O)C3CC3)cccc2c1Oc1ncccc1-c1ccnc(N[C@H]2CCCNC2)n1` [Example 337, (S)—N-(6-Methyl-5-((3-(2-(piperidin-3-ylamino)pyrimidin-4-yl)pyridin-2-yl)oxy)naphthalen-1-yl)cyclopropanecarboxamide hydrochloride], for which the IC50 turned out to be 0.0842 µM.

Turning to `Cc1ccc2c(NC(=O)Cc3ccccc3)cccc2c1Oc1ncccc1-c1ccnc(N[C@H]2CCCNC2)n1` [Example 184, N-[6-Methyl-5-[[3-[2-[[(3S)-3-piperidyl]amino]pyrimidin-4-yl]-2-pyridyl]oxy]-1-naphthyl]-2-phenyl-acetamide], the IC50 is 0.1 µM. With `Cc1ccc2c(NC(=O)C3(C(F)(F)F)CC3)cccc2c1Oc1ncccc1-c1ccnc(N[C@H]2CCCNC2)n1` [Example 220, (S)—N-(6-Methyl-5-(3-(2-(piperidin-3-ylamino)pyrimidin-4-yl)pyridin-2-yloxy)naphthalen-1-yl)-1-(trifluoromethyl)cyclopropanecarboxamide], the IC50 came out at 0.309 µM. Turning to `Cc1cnn(-c2cccc3c(Oc4ncccc4-c4ccnc(N[C@H]5CCCNC5)n4)c(C)ccc23)c1` [Example 207, (S)-4-(2-((2-Methyl-5-(4-methyl-1H-pyrazol-1-yl)naphthalen-1-yl)oxy)pyridin-3-yl)-N-(piperidin-3-yl)pyrimidin-2-amine], the IC50 is 0.251 µM. Take `Cc1ccc2c(N3C(=O)C4CCCC43)cccc2c1Oc1ncccc1-c1ccnc(N[C@H]2CCCNC2)n1` (single isomer, unassigned) [Example 248]: the IC50 was determined as 0.457 µM. Same read-out and setting: with `Cc1ccc2c(NS(=O)(=O)N(C)C)c(F)ccc2c1Oc1ncccc1-c1ccnc(N[C@H]2CCCNC2)n1` [Example 324, 4-[2-[[5-(Dimethylsulfamoylamino)-6-fluoro-2-methyl-1-naphthyl]oxy]-3-pyridyl]-2-[[(3S)-3-piperidyl]amino]pyrimidine] the figure was 0.0455 µM. The same measure, in the same setting: then `CCC1CC(=O)N(c2cccc3c(Oc4ncccc4-c4ccnc(N[C@H]5CCCNC5)n4)c(C)ccc23)C1` (single isomer, unassigned) [Example 356], with 0.279 µM; and `Cc1ccc2c(NCCC(C)(C)C#N)cccc2c1Oc1ncccc1-c1ccnc(N[C@H]2CCCNC2)n1` [Example 347, (S)-2,2-Dimethyl-4-((6-methyl-5-((3-(2-(piperidin-3-ylamino)pyrimidin-4-yl)pyridin-2-yl)oxy)naphthalen-1-yl)amino)butanenitrile], with 0.048 µM. Still for that read-out and setting: with `Cc1ccc2c(NS(=O)(=O)C3CCCC3)cccc2c1Oc1ncccc1-c1ccnc(N[C@H]2CCCNC2)n1` [Example 120, (S)—N-(6-Methyl-5-((3-(2-(piperidin-3-ylamino)pyrimidin-4-yl)pyridin-2-yl)oxy)naphthalen-1-yl)cyclopentanesulfonamide hydrochloride] the figure was 0.18 µM; with `COCCS(=O)(=O)Nc1cccc2c(Oc3ncccc3-c3ccnc(N[C@H]4CCCNC4)n3)c(C)ccc12` [Example 137, (S)-2-Methoxy-N-(6-methyl-5-((3-(2-(piperidin-3-ylamino)pyrimidin-4-yl)pyridin-2-yl)oxy)naphthalen-1-yl)ethanesulfonamide], 0.477 µM; with `Cc1cccc(S(=O)(=O)Nc2cccc3c(Oc4ncccc4-c4ccnc(N[C@H]5CCCNC5)n4)c(C)ccc23)n1` [Example 171, (S)-6-Methyl-N-(6-methyl-5-((3-(2-(piperidin-3-ylamino)pyrimidin-4-yl)pyridin-2-yl)oxy)naphthalen-1-yl)pyridine-2-sulfonamide], 0.309 µM. As for `CCCS(=O)(=O)Nc1cccc2c(Oc3ncccc3-c3ccnc(N[C@H]4CC[C@H](N)CC4)n3)c(C)ccc12` [Example 158, N-(5-((3-(2-(((trans)-4-Aminocyclohexyl)amino)pyrimidin-4-yl)pyridin-2-yl)oxy)-6-methylnaphthalen-1-yl)propane-1-sulfonamide], the IC50 stood at 0.471 µM. Still for that read-out and setting: then `Cc1ccc2c(NC(=O)[C@H]3CCC(C)C3)cccc2c1Oc1ncccc1-c1ccnc(N[C@H]2CCCNC2)n1` (single isomer, unassigned) [Example 278], with 0.313 µM; and `Cc1ccc2c(NC(=O)c3cn(C)cn3)cccc2c1Oc1ncccc1-c1ccnc(N[C@H]2CCCNC2)n1` [Example 176, (S)-1-Methyl-N-(6-methyl-5-((3-(2-(piperidin-3-ylamino)pyrimidin-4-yl)pyridin-2-yl)oxy)naphthalen-1-yl)-1H-imidazole-4-carboxamide], with 0.368 µM. Still for that read-out and setting: then `CCC(C)C(=O)Nc1cccc2c(Oc3ncccc3-c3ccnc(N[C@H]4CCCNC4)n3)c(C)ccc12` (stereo partly drawn) [Example 182, 2-Methyl-N-(6-methyl-5-((3-(2-(((S)-piperidin-3-yl)amino)pyrimi-din-4-yl)pyridin-2-yl)oxy)naphthalen-1-yl)butanamide], with 0.154 µM. On to `Cc1nc(Nc2cccc3c(Oc4ncccc4-c4ccnc(N[C@H]5CCCNC5)n4)c(C)ccc23)cs1` [Example 192, (S)-2-Methyl-N-(6-methyl-5-((3-(2-(piperidin-3-ylamino)pyrimidin-4-yl)pyridin-2-yl)oxy)naphthalen-1-yl)thiazol-4-amine], for which the IC50 came to 0.444 µM. For `Cc1ccc2c(N3CCN(C)S3(=O)=O)cccc2c1Oc1ncccc1-c1ccnc(N[C@H]2CCCNC2)n1` [Example 247, (S)-2-Methyl-5-(6-methyl-5-((3-(2-(piperidin-3-ylamino)pyrimidin-4-yl)pyridin-2-yl)oxy)naphthalen-1-yl)-1,2,5-thiadiazolidine 1,1-dioxide], the IC50 came out at 0.36 µM. Same read-out and setting: then `Cc1ccc2c(NC(=O)[C@H]3CC34CC4)c(F)ccc2c1Oc1ncccc1-c1ccnc(N[C@@H]2CNC[C@H](C)C2)n1` (single isomer, unassigned) [Example 388], with 0.136 µM; and `CCCS(=O)(=O)Nc1c(Cl)ccc2c(Oc3ncccc3-c3ccnc(N[C@H]4CCCNC4)n3)c(C)ccc12` [Example 370, (S)—N-(2-Chloro-6-methyl-5-((3-(2-(piperidin-3-ylamino)pyrimidin-4-yl)pyridin-2-yl)oxy)naphthalen-1-yl)propane-1-sulfonamide], with 0.0276 µM.

Regarding `CCCS(=O)(=O)Nc1c(F)ccc2c(Oc3ncccc3-c3ccnc(N[C@@H]4CNC[C@H](C)C4)n3)c(C)ccc12` [Example 367, N-(2-Fluoro-6-methyl-5-((3-(2-(((3S,5R)-5-methylpiperidin-3-yl)amino)pyrimidin-4-yl)pyridin-2-yl)oxy)naphthalen-1-yl)propane-1-sulfonamide], the IC50 amounted to 0.0145 µM. Consider `Cc1ccc2c(NC(=O)C3CC3)c(F)ccc2c1Oc1ncccc1-c1ccnc(N[C@H]2CCCNC2)n1` [Example 271, (S)—N-(2-Fluoro-6-methyl-5-((3-(2-(piperidin-3-ylamino)pyrimidin-4-yl)pyridin-2-yl)oxy)naphthalen-1-yl)cyclopropanecarboxamide], for which the IC50 came out at 0.271 µM. Still for that read-out and setting: then `Cc1ccc2c(NS(=O)(=O)C3CCCCC3)cccc2c1Oc1ncccc1-c1ccnc(N[C@H]2CCCNC2)n1` [Example 140, (S)—N-(6-Methyl-5-((3-(2-(piperidin-3-ylamino)pyrimidin-4-yl)pyridin-2-yl)oxy)naphthalen-1-yl)cyclohexanesulfonamide], with 0.177 µM.

The test is the same for the next values; noted with them: Table 2; read-out: XBP1s-luc 293 LUC (IC50).
As for `Cc1ccc2c(NS(=O)(=O)Cc3ccc(OC(F)(F)F)cc3)c(F)ccc2c1Oc1ncccc1-c1ccnc(N[C@H]2CCCNC2)n1` [Example 419, (S)—N-(2-Fluoro-6-methyl-5-((3-(2-(piperidin-3-ylamino)pyrimidin-4-yl)pyridin-2-yl)oxy)naphthalen-1-yl)-1-(4-(trifluoromethoxy)phenyl)methanesulfonamide hydrochloride], the IC50 amounted to 0.129 µM.

Turning to `Cc1ccc2c(NS(=O)(=O)CC3(F)CC3)c(F)ccc2c1Oc1ncccc1-c1ccnc(N[C@H]2CCCNC2)n1` [Example 453, (S)—N-(2-Fluoro-6-methyl-5-((3-(2-(piperidin-3-ylamino)pyrimidin-4-yl)pyridin-2-yl)oxy)naphthalen-1-yl)-1-(1-fluorocyclopropyl)methanesulfonamide hydrochloride], the IC50 was 0.018 µM. `Cc1ccc2c(NS(=O)(=O)c3cccc4c3ccn4C)c(F)ccc2c1Oc1ncccc1-c1ccnc(N[C@H]2CCCNC2)n1` [Example 458, N-[2-Fluoro-6-methyl-5-[[3-[2-[[(3S)-3-piperidyl]amino]pyrimidin-4-yl]-2-pyridyl]oxy]-1-naphthyl]-1-methyl-indole-4-sulfonamide]: the IC50 turned out to be 0.019 µM. For `Cc1cc(CS(=O)(=O)Nc2c(F)ccc3c(Oc4ncccc4-c4ccnc(N[C@@H]5CNC[C@@H](F)C5)n4)c(C)ccc23)no1` (single isomer, unassigned) [Example 468, hydrochloride], the IC50 turned out to be 0.01 µM. Consider `Cc1ccc2c(NS(=O)(=O)C[C@H]3CC34CC4)c(F)ccc2c1Oc1ncccc1-c1ccnc(N[C@H]2CCCNC2)n1` (single isomer, unassigned) [Example 474, hydrochloride], for which the IC50 was found to be 0.052 µM.
